From ChEMBL document CHEMBL1156081, “Discovery of 4-functionalized phenyl-O-beta-D-glycosides as a new class of mushroom tyrosinase inhibitors” (Bioorg Med Chem Lett, 2009)
Active and inactive are the calls of the source. No cut-off for these calls is given here.

What was measured:
[1] = biological target: T1, Tyrosinase (Agaricus bisporus) (UniProt O42713); experiment: Inhibition of mushroom tyrosinase at 200 uM
T1 sequence (whole entry): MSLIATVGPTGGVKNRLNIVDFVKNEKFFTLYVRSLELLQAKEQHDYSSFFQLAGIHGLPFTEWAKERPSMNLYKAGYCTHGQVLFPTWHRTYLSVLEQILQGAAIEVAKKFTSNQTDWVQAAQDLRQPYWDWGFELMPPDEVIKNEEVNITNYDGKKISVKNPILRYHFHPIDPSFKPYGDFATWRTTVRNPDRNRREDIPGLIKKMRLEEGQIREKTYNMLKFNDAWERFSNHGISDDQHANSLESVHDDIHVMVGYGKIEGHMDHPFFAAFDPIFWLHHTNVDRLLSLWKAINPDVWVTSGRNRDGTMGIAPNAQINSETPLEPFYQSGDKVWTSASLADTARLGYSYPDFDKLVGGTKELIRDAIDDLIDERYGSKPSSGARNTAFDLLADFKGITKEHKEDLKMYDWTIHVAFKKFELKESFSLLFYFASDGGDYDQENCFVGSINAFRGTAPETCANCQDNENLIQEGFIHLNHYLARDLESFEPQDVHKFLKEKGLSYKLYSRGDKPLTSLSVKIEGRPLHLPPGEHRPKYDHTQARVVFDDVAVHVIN

Tyrosinase = biological target: T2, Tyrosinase (Agaricus bisporus, UniProt O42713); experiment: Inhibition of mushroom tyrosinase
T2 sequence (O42713 whole entry): T1 sequence (whole entry)

[2] = biological target: T1, Tyrosinase (Agaricus bisporus); experiment: Reversible inhibition of mushroom tyrosinase assessed as L-DOPA oxidation at 1.2 to 2.4 uM
[3] = biological target: T1, Tyrosinase (Agaricus bisporus); conditions: 1.06 to 0.12 uM
Description: Competitive inhibition of mushroom tyrosinase assessed as L-DOPA oxidation at 1.06 to 0.12 uM by Lineweaver-Burke double reciprocal plot

[4] = biological target: T1, Tyrosinase (Agaricus bisporus); experiment: Competitive-uncompetitive mixed-2 type inhibition of mushroom tyrosinase assessed as L-DOPA oxidation at 0.05 to 0.10 uM by Lineweaver-Burke double reciprocal plot

inhibition [1]	IC50 (Tyrosinase) [µM]	SMILES	other results
–	3.41	CC(=O)OC[C@H]1O[C@@H](Oc2ccc(/C=N\NC(N)=S)cc2)[C@H](OC(C)=O)[C@H](OC(C)=O)[C@@H]1OC(C)=O	–
inactive	> 200	CO/N=C\c1ccc(O[C@@H]2O[C@H](CO)[C@@H](O)[C@@H](O)[C@H]2O)cc1	–
inactive	> 200	CC(=O)OC[C@H]1O[C@@H](O[C@H]2[C@H](OC(C)=O)[C@@H](OC(C)=O)[C@H](Oc3ccc(/C=N\O)cc3)O[C@@H]2COC(C)=O)[C@H](OC(C)=O)[C@@H](OC(C)=O)[C@H]1OC(C)=O	–
–	0.31	CC(=O)OC[C@H]1O[C@@H](Oc2ccc(/C=N\NC(N)=S)cc2)[C@H](OC(C)=O)[C@@H](OC(C)=O)[C@@H]1OC(C)=O	inhibition [2]: Active; inhibition [3]: Active
inactive	–	CC(=O)OC[C@H]1O[C@@H](Oc2ccc(C=O)cc2)[C@H](OC(C)=O)[C@@H](OC(C)=O)[C@H]1OC(C)=O	–
inactive	–	CC(=O)OC[C@H]1O[C@@H](Oc2ccc(C=O)cc2)[C@H](OC(C)=O)[C@H](OC(C)=O)[C@@H]1OC(C)=O	–
inactive	> 200	CC(=O)OC[C@H]1O[C@@H](Oc2ccc(/C=N\O)cc2)[C@H](OC(C)=O)[C@@H](OC(C)=O)[C@H]1OC(C)=O	–
inactive	> 200	CC(=O)OC[C@H]1O[C@@H](Oc2ccc(/C=N\O)cc2)[C@H](OC(C)=O)[C@H](OC(C)=O)[C@@H]1OC(C)=O	–
inactive	> 200	OC[C@H]1O[C@@H](Oc2ccc(/C=N\O)cc2)[C@H](O)[C@H](O)[C@@H]1O	–
inactive	> 200	CO/N=C\c1ccc(O[C@@H]2O[C@H](COC(C)=O)[C@@H](O[C@@H]3O[C@H](COC(C)=O)[C@H](OC(C)=O)[C@H](OC(C)=O)[C@H]3OC(C)=O)[C@H](OC(C)=O)[C@H]2OC(C)=O)cc1	–
inactive	> 200	O=C(OC[C@H]1O[C@@H](Oc2ccc(/C=N\O)cc2)[C@H](OC(=O)c2ccccc2)[C@H](OC(=O)c2ccccc2)[C@@H]1OC(=O)c1ccccc1)c1ccccc1	–
inactive	> 200	CO/N=C\c1ccc(O[C@@H]2O[C@H](CO)[C@@H](O)[C@H](O)[C@H]2O)cc1	–
inactive	> 200	OC[C@H]1O[C@@H](Oc2ccc(/C=N\O)cc2)[C@H](O)[C@@H](O)[C@@H]1O	–
–	0.41	CC(=O)OC[C@H]1O[C@@H](Oc2ccc(/C=N\NC(N)=S)cc2)[C@H](OC(C)=O)[C@@H](OC(C)=O)[C@H]1OC(C)=O	–
–	0.65	CC(=O)OC[C@H]1O[C@@H](O[C@H]2[C@H](OC(C)=O)[C@@H](OC(C)=O)[C@H](Oc3ccc(/C=N\NC(N)=S)cc3)O[C@@H]2COC(C)=O)[C@H](OC(C)=O)[C@@H](OC(C)=O)[C@H]1OC(C)=O	inhibition [2]: Active; inhibition [4]: Active
inactive	–	CC(=O)OC[C@H]1O[C@@H](Oc2ccc(C=O)cc2)[C@H](OC(C)=O)[C@@H](OC(C)=O)[C@@H]1OC(C)=O	–
inactive	> 200	CC(=O)OC[C@H]1O[C@@H](Oc2ccc(/C=N\O)cc2)[C@H](OC(C)=O)[C@@H](OC(C)=O)[C@@H]1OC(C)=O	–

Second part, the compound before the results:

SMILES	inhibition [1]	IC50 (Tyrosinase) [µM]	other results
O=Cc1ccc(O[C@@H]2O[C@H](CO)[C@@H](O)[C@H](O)[C@H]2O)cc1	inactive	–	–
CO/N=C\c1ccc(O[C@@H]2O[C@H](COC(=O)c3ccccc3)[C@@H](OC(=O)c3ccccc3)[C@@H](OC(=O)c3ccccc3)[C@H]2OC(=O)c2ccccc2)cc1	inactive	> 200	–
NC(=S)N/N=C\c1ccc(O[C@@H]2O[C@H](CO)[C@@H](O)[C@H](O)[C@H]2O)cc1	–	2.96	–
CO/N=C\c1ccc(O[C@@H]2O[C@H](COC(C)=O)[C@@H](OC(C)=O)[C@@H](OC(C)=O)[C@H]2OC(C)=O)cc1	inactive	> 200	–
O=C(O[C@@H]1[C@@H](OC(=O)c2ccccc2)[C@H](Oc2ccc(/C=N\O)cc2)OC[C@H]1OC(=O)c1ccccc1)c1ccccc1	inactive	> 200	–
O=Cc1ccc(O[C@@H]2O[C@H](COC(=O)c3ccccc3)[C@@H](OC(=O)c3ccccc3)[C@@H](OC(=O)c3ccccc3)[C@H]2OC(=O)c2ccccc2)cc1	inactive	–	–
NC(=S)N/N=C\c1ccc(O[C@@H]2O[C@H](COC(=O)c3ccccc3)[C@@H](OC(=O)c3ccccc3)[C@@H](OC(=O)c3ccccc3)[C@H]2OC(=O)c2ccccc2)cc1	–	52.8	–
CO/N=C\c1ccc(O[C@@H]2O[C@H](COC(C)=O)[C@H](OC(C)=O)[C@H](OC(C)=O)[C@H]2OC(C)=O)cc1	inactive	> 200	–
O=Cc1ccc(O[C@@H]2OC[C@@H](OC(=O)c3ccccc3)[C@H](OC(=O)c3ccccc3)[C@H]2OC(=O)c2ccccc2)cc1	inactive	–	–
NC(=S)N/N=C\c1ccc(O[C@@H]2OC[C@@H](OC(=O)c3ccccc3)[C@H](OC(=O)c3ccccc3)[C@H]2OC(=O)c2ccccc2)cc1	–	36.5	–
NC(=S)N/N=C\c1ccc(O[C@@H]2O[C@H](CO)[C@@H](O)[C@@H](O)[C@H]2O)cc1	–	3.61	–
O=Cc1ccc(O[C@@H]2O[C@H](CO)[C@@H](O)[C@@H](O)[C@H]2O)cc1	inactive	–	–
CCO/N=C\c1ccc(O)c(O)c1	–	0.3	–
CO/N=C\c1ccc(O[C@@H]2OC[C@@H](OC(=O)c3ccccc3)[C@H](OC(=O)c3ccccc3)[C@H]2OC(=O)c2ccccc2)cc1	inactive	> 200	–
CO/N=C\c1ccc(O[C@@H]2O[C@H](COC(C)=O)[C@@H](OC(C)=O)[C@H](OC(C)=O)[C@H]2OC(C)=O)cc1	inactive	> 200	–
